Tests used:
[1] = system: ICAM-1 induction in BEAS2B cells; experiment: Poly I:C-induced ICAM-1 induction in BEAS2B cells; type: cell-based, human; settings: Homo sapiens, BEAS-2B, read-out: PolyIC/ICAM1 IC50 BEAS2B
Protocol: Poly I:C-Induced ICAM-1 Induction in BEAS2B Cells
Poly I:C (1 μg/mL) (Invivogene Ltd., San Diego, Calif.) was transfected into BEAS2B cells (human bronchial epithelial cells, ATCC) with Oligofectamine (Invitrogen, Carlsbad, Calif.). Cells were pre-incubated with final concentrations of test compounds for 2 hr and the level of ICAM1 expression on the cell surface was determined by cell-based ELISA. At a time point 18 hr after poly I:C transfection, cells were fixed with 4% formaldehyde in PBS and then endogenous peroxidase was quenched by the addition of 0.1% sodium azide and 1% hydrogen peroxide. Cells were washed with wash-buffer (0.1% Tween in PBS: PBS-Tween). and after blocking the wells with 5% milk in PBS-Tween for 1 hr, the cells were incubated with anti-human ICAM-1 antibody (Cell Signaling Technology, Danvers, Mass.) in 1% BSA PBS overnight at 4° C. The cells were washed with PBS-Tween and incubated with the secondary antibody (HRP-conjugated anti-rabbit IgG, Dako Ltd., Glostrup, Denmark). The ICAM-1 signal was detected by adding substrate and reading the absorbance at 450 nm against a reference wavelength of 655 nm using a spectrophotometer. The cells were then washed with PBS-Tween and total cell numbers in each well were determined by reading absorbance at 595 nm after Crystal Violet staining and elution by 1% SDS solution. The measured OD 450-655 readings were corrected for cell number by dividing with the OD595 reading in each well. The inhibition of ICAM-1 expression was calculated at each concentration of test compound by comparison with vehicle control. The 50% inhibitory concentration (IC50) was determined from the resultant concentration-response curve.

[2] = system: Differentiated U937 cells; experiment: Cell viability MTT assay; type: cell-based, human; settings: negative = apparent increase in viability; for MTT Assay (Viability) 4 h d-U937, percentage loss of cell viability: 4 hr in 5% FCS; for MTT Assay (Viability) 24 h d-U937, percentage loss of cell viability: 24 h in 10% FCS
Protocol: Differentiated U937 cells were pre-incubated with each test compound under two protocols: the first for 4 hr in 5% FCS and the second in 10% FCS for 24 h. The supernatant was replaced with 200 μL of new media and 10 μL of MTT stock solution (5 mg/mL) was added to each well. After incubation for 1 hr the media were removed, 200 μL of DMSO was added to each well and the plates were shaken lightly for 1 hr prior to reading the absorbance at 550 nm. The percentage loss of cell viability was calculated for each well relative to vehicle (0.5% DMSO) treatment. Consequently an apparent increase in cell viability for drug treatment relative to vehicle is tabulated as a negative percentage.

[3] = target: T1, p38 MAPKα isoform (MAPK14) (Homo sapiens, UniProt Q16539); experiment: Enzyme inhibition assay (FRET, Z-LYTE), p38 MAPKα via MAPKAP-K2 activation; type: biochemical; settings: read-out: Enzyme Inhibition IC50 p38α
T1 construct: purchased Invitrogen
Protocol: (§1) The enzyme inhibitory activities of compounds disclosed herein were determined by fluorescence resonance energy transfer (FRET) using synthetic peptides labelled with both donor and acceptor fluorophores (Z-LYTE, Invitrogen Ltd., Paisley, UK). Recombinant, phosphorylated p38 MAPKγ (MAPK12:Invitrogen) was diluted in HEPES buffer, mixed with the test compound at the desired final concentrations and incubated for 2 hr at RT. The FRET peptide (2 μM) and ATP (100 μM) were added to the enzyme/compound mixture and incubated for 1 hr. Development reagent (protease) was added for 1 hr prior to detection in a fluorescence microplate reader (Varioskan® Flash, ThermoFisher Scientific). The site-specific protease cleaves non-phosphorylated peptide only and eliminates the FRET signal. Phosphorylation levels of each reaction were calculated using the ratio of coumarin emission (donor) over fluorescein emission (acceptor) for which high ratios indicate high phosphorylation and low ratios indicate low phosphorylation levels. The percentage inhibition of each reaction was calculated relative to non-inhibited control and the 50% inhibitory concentration (IC50 value) then calculated from the concentration-response curve.
For the p38 MAPKα isoform (MAPK14: Invitrogen), enzyme activity was evaluated indirectly by determining the level of activation/phosphorylation of the down-stream molecule, MAPKAP-K2. The p38 MAPKα protein was mixed with the test compound for 2 hr at RT. […] Development reagent was then added and the mixture incubated for 1 hr before detection by fluorescence completed the assay protocol.

[4] = system: IL-8 release in d-U937 cells; experiment: LPS-induced IL-8 release in d-U937 cells; type: cell-based, human; settings: Homo sapiens, dU937
Protocol: (§2) LPS-Induced TNFα/IL-8 Release in d-U937 Cells
(§3) U937 cells, a human monocytic cell line, were differentiated to macrophage-type cells by incubation with phorbol myristate acetate (PMA; 100 ng/ml) for 48 to 72 hr. Cells were pre-incubated with final concentrations of test compound for 2 hr and were then stimulated with 0.1 μg/mL of LPS (from E. Coli: O111:B4, Sigma) for 4 hr. The supernatant was collected for determination of TNFα and IL-8 concentrations by sandwich ELISA (Duo-set, R&D systems). The inhibition of TNFα production was calculated as a percentage of that achieved by 10 μg/mL of BIRB796 at each concentration of test compound by comparison against vehicle control. The relative 50% effective concentration (REC50) was determined from the resultant concentration-response curve. The inhibition of IL-8 production was calculated at each concentration of test compound by comparison with vehicle control. The 50% inhibitory concentration (IC50) was determined from the resultant concentration-response curve.

[5] = system: TNFα release in THP-1 cells; experiment: LPS-induced TNFα release in THP-1 cells; type: cell-based, human; settings: Homo sapiens
Protocol: LPS-Induced TNFα Release in THP-1 Cells
THP-1 cells, a human monocytic cell line, were stimulated with 3 μg/mL of LPS (from E. Coli; 0111:B4, Sigma) for 4 hr and the supernatant collected for determination of the TNFα concentration by sandwich ELISA (Duo-set, R&D systems). The inhibition of TNFα production was calculated at each concentration by comparison with vehicle control. The 50% inhibitory concentration (IC50) was determined from the resultant concentration-response curve.

p38 MAPKγ (MAPK12) = target: T2, p38 MAPKγ (MAPK12) (Homo sapiens, UniProt P53778); experiment: Enzyme inhibition assay (FRET, Z-LYTE), p38 MAPKγ; type: biochemical; settings: read-out: Enzyme Inhibition IC50 p38γ
T2 construct: purchased Invitrogen
T2 sequence (P53778 1-367): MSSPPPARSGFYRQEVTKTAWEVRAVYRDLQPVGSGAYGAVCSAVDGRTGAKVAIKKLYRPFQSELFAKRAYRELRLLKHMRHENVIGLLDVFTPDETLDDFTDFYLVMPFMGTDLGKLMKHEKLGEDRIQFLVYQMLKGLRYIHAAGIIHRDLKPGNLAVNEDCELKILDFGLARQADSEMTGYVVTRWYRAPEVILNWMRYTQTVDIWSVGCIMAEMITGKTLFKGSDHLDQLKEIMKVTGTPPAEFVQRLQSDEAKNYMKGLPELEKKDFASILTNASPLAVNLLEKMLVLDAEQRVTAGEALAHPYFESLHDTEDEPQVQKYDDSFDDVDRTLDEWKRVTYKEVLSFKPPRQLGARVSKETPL
Protocol: as §1

[6] = system: TNFα release in d-U937 cells; experiment: LPS-induced TNFα release in d-U937 cells; type: cell-based, human; settings: Homo sapiens, dU937, relative to 10 μg/mL BIRB796, read-out: LPS/TNFα REC50 d-U937
Protocol: as §2, §3

T1 sequence (Q16539 whole entry, canonical isoform): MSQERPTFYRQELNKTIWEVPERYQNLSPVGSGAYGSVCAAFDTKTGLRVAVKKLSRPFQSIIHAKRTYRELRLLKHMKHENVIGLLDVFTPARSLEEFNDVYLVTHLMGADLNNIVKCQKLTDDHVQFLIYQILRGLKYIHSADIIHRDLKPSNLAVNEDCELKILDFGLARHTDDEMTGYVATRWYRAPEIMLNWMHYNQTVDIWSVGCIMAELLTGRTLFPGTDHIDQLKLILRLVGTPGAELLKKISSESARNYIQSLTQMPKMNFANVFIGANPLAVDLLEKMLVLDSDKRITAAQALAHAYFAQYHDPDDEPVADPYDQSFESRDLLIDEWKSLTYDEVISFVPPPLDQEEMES

Row | Compound | IC50 [3] [nM] | IC50 [4] [nM] | IC50 [5] [nM] | IC50 (p38 MAPKγ (MAPK12)) [nM] | EC50 [6] [nM] | IC50 [1] [nM] | MTT Assay (Viability) 4 h d-U937, percentage loss of cell viability [2] [%] | MTT Assay (Viability) 24 h d-U937, percentage loss of cell viability [2] [%]
1 | COCC(=O)Nc1cc(Oc2ccc(NC(=O)Nc3cc(C(C)(C)C)nn3-c3ccc(C)cc3)c(Br)c2)ccn1 [Example 32, N-(4-(3-bromo-4-(3-(3-tert-butyl-1-p-tolyl-1H-pyrazol-5-yl)ureido)phenoxy)pyridin-2-yl)-2-methoxyacetamide] | 42.9 | 29.1 | 1.3 | 148 | 0.6 | 6.5 | 17.2 | 65.3
2 | COc1ccc(-n2nc(C(C)(C)C)cc2NC(=O)Nc2ccc(Oc3ccnc(NC(=O)NCCN(C)C)c3)c(Cl)c2Cl)cc1 [Example 13, 1-(3-tert-Butyl-1-(4-methoxyphenyl)-1H-pyrazol-5-yl)-3-(2,3-dichloro-4-((2-(3-(2-(dimethylamino)ethyl)ureido)pyridin-4-yl)oxy)phenyl)urea] | 11.2 | 1.3 | 1.7 | 21.7 | 2.1 | 2.1 | −6.4 | 63.9
3 | COc1ccc(-n2nc(C(C)(C)C)cc2NC(=O)Nc2ccc(Oc3ccnc(NC(=O)CN(C)C)c3)c(Cl)c2Cl)cc1 [Example 43, N-(4-(4-(3-(3-tert-butyl-1-(4-methoxyphenyl)-1H-pyrazol-5-yl)ureido)-2,3-dichlorophenoxy)pyridin-2-yl)-2-(dimethylamino)acetamide] | 27.5 | 1.3 | 0.4 | 78.1 | 0.9 | 2.3 | −18.7 | 79.1
4 | COCC(=O)Nc1cc(Oc2ccc(NC(=O)Nc3cc(C(C)(C)C)nn3-c3ccc(C)cc3)c(Cl)c2)ccn1 [Example 27, N-(4-(4-(3-(3-tert-butyl-1-p-tolyl-1H-pyrazol-5-yl)ureido)-3-chlorophenoxy)pyridin-2-yl)-2-methoxyacetamide] | 18.8 | 3.3 | 0.6 | 111 | 0.5 | 6.3 | 7.2 | 54.9
5 | COCC(=O)Nc1cc(Oc2cc(Cl)c(NC(=O)Nc3cc(C(C)(C)C)nn3-c3ccc(C)cc3)cc2F)ccn1 [Example 38, N-(4-(4-(3-(3-tert-butyl-1-p-tolyl-1H-pyrazol-5-yl)ureido)-5-chloro-2-fluorophenoxy)pyridin-2-yl)-2-methoxyacetamide] | 63 | 160 | 3.7 | 35.9 | 54.1 | 24.8 | 0.6 | 64.1
6 | COc1ccc(-n2nc(C(C)(C)C)cc2NC(=O)Nc2ccc(Oc3cc(NC(=O)NCCN(C)C)ncn3)c(Cl)c2Cl)cc1 [Example 100] | 5.3 | 12.9 | 0.7 | 59.4 | 0.3 | 2 | −43.0 | 17.2

More lines, main results first:

Row | IC50 [3] [nM] | IC50 [4] [nM] | IC50 [5] [nM] | IC50 (p38 MAPKγ (MAPK12)) [nM] | EC50 [6] [nM] | Compound | IC50 [1] [nM] | MTT Assay (Viability) 4 h d-U937, percentage loss of cell viability [2] [%] | MTT Assay (Viability) 24 h d-U937, percentage loss of cell viability [2] [%]
7 | 18.4 | 0.4 | 0.4 | 24.3 | 0.2 | CC(C)(C)c1cc(NC(=O)Nc2ccc(Oc3ccnc(NC(=O)N4CCCC4)c3)c(Cl)c2Cl)n(-c2ccc(CO)cc2)n1 [Example 77, N-(4-(4-(3-(3-tert-butyl-1-(4-hydroxymethylphenyl)-1H-pyrazol-5-yl)ureido)-2,3-dichlorophenoxy)pyridin-2-yl)pyrrolidine-1-carboxamide] | 2.5 | −8.8 | 53.3
8 | 41.2 | 0.6 | 1.3 | 59.2 | 0.2 | CNC(=O)Nc1cc(Oc2ccc(NC(=O)Nc3cc(C(C)(C)C)nn3-c3ccc(C)cc3)c(Cl)c2Cl)ccn1 [Example 50, 1-(3-tert-butyl-1-p-tolyl-1H-pyrazol-5-yl)-3-(2,3-dichloro-4-(2-(3-methylureido)pyridin-4-yloxy)phenyl)urea] | 1.1 | −5.4 | 35.9
9 | 18.5 | 837 | 12.3 | 4370 | 25.6 | Cc1ccc(-n2nc(C(C)(C)C)cc2NC(=O)Nc2ccc(OCc3ccnc(NC(=O)N4CCCC4)c3)c(Cl)c2Cl)cc1 [Example 19, N-(4-((4-(3-(3-tert-Butyl-1-(p-tolyl)-1H-pyrazol-5-yl)ureido)-2,3-dichlorophenoxy)methyl)pyridin-2-yl)pyrrolidine-1-carboxamide] | 23.7 | −13.5 | 6.9
10 | 28.9 | 11.4 | 0.5 | 140 | 0.3 | Cc1ccc(-n2nc(C(C)(C)C)cc2NC(=O)Nc2ccc(Oc3ccnc(NC(=O)N(C)C)c3)c(Cl)c2Cl)cc1 [Example 63] | 3 | −29.7 | 51.6
